Data published in patent US20100130737A1, “Regulating Agent of GPR34 Receptor Function” (TAKEDA PHARMACEUTICAL COMPANY LIMITED, priority 2005, published 2010).

SMILES | melting point [°C]
Cc1c(C(=O)NC2(C(=O)O)Cc3cccc(Br)c3C2)oc2cc(-c3ccc(Cl)cc3)ccc12 (stereo not shown) [Example C113, 4-Bromo-2-({[6-(4-chlorophenyl)-3-methyl-1-benzofuran-2-yl]carbonyl}amino)indan-2-carboxylic acid] | 230
Cc1c(C(=O)NC2(C(=O)O)Cc3ccc(Br)cc3C2)oc2cc(-c3ccc(Cl)cc3)ccc12 (stereo not shown) [Example C114, 5-Bromo-2-({[6-(4-chlorophenyl)-3-methyl-1-benzofuran-2-yl]carbonyl}amino)indan-2-carboxylic acid] | 227
Cc1c(C(=O)N[C@H](Cc2ccc(OCc3ccccc3)cc2)C(=O)O)oc2cc(-c3ccc(Cl)cc3)ccc12 [Example C116, O-Benzyl-N-{[6-(4-chlorophenyl)-3-methyl-1-benzofuran-2-yl]carbonyl}-D-tyrosine] | 113 to 114
Cc1c(C(=O)N[C@@H](Cc2ccc(OCc3ccsc3)cc2)C(=O)O)oc2cc(-c3ccc(Cl)cc3)ccc12 [Example C118, N-{[6-(4-Chlorophenyl)-3-methyl-1-benzofuran-2-yl]carbonyl}-O-(3-thienylmethyl)-L-tyrosine] | 111 to 113
Cc1c(C(=O)N[C@@H](Cc2ccc(OCc3ccoc3)cc2)C(=O)O)oc2cc(-c3ccc(Cl)cc3)ccc12 [Example C119, N-{[6-(4-Chlorophenyl)-3-methyl-1-benzofuran-2-yl]carbonyl}-O-(3-furylmethyl)-L-tyrosine] | 108 to 110
O=C(N[C@@H](Cc1ccc(OCc2ccoc2)cc1)C(=O)O)c1cc2ccc(-c3ccc(Cl)cc3)cc2s1 [Example C124, N-{[6-(4-Chlorophenyl)-1-benzothiophene-2-yl]carbonyl}-O-(3-furylmethyl) tyrosine] | 200 to 201
O=C(N[C@@H](Cc1ccc(OCc2ccoc2)cc1)C(=O)O)c1cc2cc(-c3ccc(Cl)cc3)ccc2s1 [Example C125, N-{[5-(4-Chlorophenyl)-1-benzothiophene-2-yl]carbonyl}-O-(3-furylmethyl) tyrosine] | 172 to 173
Cc1cccc(COc2ccc(C[C@H](NC(=O)c3cc4cc(-c5ccc(Cl)cc5)ccc4s3)C(=O)O)cc2)c1 [Example C127, N-{[5-(4-Chlorophenyl)-1-benzothiophene-2-yl]carbonyl}-O-(3-methylbenzyl)tyrosine] | 192 to 193
COc1cccc(COc2ccc(C[C@H](NC(=O)c3cc4cc(-c5ccc(Cl)cc5)ccc4s3)C(=O)O)cc2)c1 [Example C128, N-{[5-(4-Chlorophenyl)-1-benzothiophene-2-yl]carbonyl}-O-(3-methoxybenzyl)tyrosine] | 175 to 177
Cc1ccc(COc2ccc(C[C@H](NC(=O)c3cc4cc(C#Cc5ccccc5)ccc4s3)C(=O)O)cc2)cc1 [Example C140, O-(4-Methylbenzyl)-N-{[5-(phenylethynyl)-1-benzothiophene-2-yl]carbonyl}tyrosine] | 204 to 207
O=C(NC(Cc1ccc(OCc2ccc(Cl)cc2)cc1)C(=O)O)c1cc2cc(C#Cc3ccccc3)ccc2s1 (stereo not shown) [Example C141, O-(4-Chlorolbenzyl)-N-{[5-(phenylethynyl)-1-benzothiophene-2-yl]carbonyl)tyrosine] | 216 to 221
Nc1c(C(=O)NC(Cc2ccc(OCc3ccccc3)cc2)C(=O)O)oc2ccc(-c3ccc(Cl)cc3)cc12 (stereo not shown) [Example C149] | 250
Cc1c(C(=O)N[C@@H](Cc2ccc(OCc3ccoc3)cc2)C(=O)O)oc2ccc(-c3ccc(Cl)cc3)cc12 [Example C150, N-{[5-(4-Chlorophenyl)-3-methyl-1-benzofuran-2-yl]carbonyl}-O-(3-furylmethyl)tyrosine] | 196 to 197
O=C(N[C@@H](Cc1ccc(OCc2ccoc2)cc1)C(=O)O)c1cc2ccc(-c3ccc(Cl)cc3)cc2o1 [Example C151, N-{[6-(4-Chlorophenyl)-1-benzofuran-2-yl]carbonyl}-O-(3-furylmethyl)tyrosine] | 159 to 160
O=C(N[C@@H](Cc1ccc(OCc2ccoc2)cc1)C(=O)O)c1cc2cc(-c3ccc(Cl)cc3)ccc2o1 [Example C152, N-{[5-(4-Chlorophenyl)-1-benzofuran-2-yl]carbonyl}-O-(3-furylmethyl)tyrosine] | 211 to 212
COc1cccc(COc2ccc(C[C@H](NC(=O)c3cc4ccc(-c5ccc(Cl)cc5)cc4o3)C(=O)O)cc2)c1 [Example C155, N-{[6-(4-Chlorophenyl)-1-benzofuran-2-yl]carbonyl}-O-(3-methoxybenzyl)tyrosine] | 150 to 151
Cc1c(C(=O)N[C@H](C(=O)O)c2ccc(OCc3ccccc3)cc2)oc2cc(-c3ccc(Cl)cc3)ccc12 [Example C156, (2S)-[4-(Benzyloxy)phenyl]({[6-(4-chlorophenyl)-3-methyl-1-benzofuran-2-yl]carbonyl}amino)acetic acid] | 178
O=C(/C=C/c1cccc(-c2ccc(Cl)cc2)n1)NC(Cc1ccc(OCc2ccccc2)cc1)C(=O)O (stereo not shown) [Example D3, O-Benzyl-N-{3-[6-(4-chlorophenyl)pyridin-2-yl]acryloyl}tyrosine] | 226 to 228
O=C(/C=C/c1ccc(-c2ccc(Cl)cc2)o1)N[C@@H](Cc1ccc(OCc2ccccc2)cc1)C(=O)O [Example D4, O-Benzyl-N-{(2E)-3-[5-(4-chlorophenyl)-2-furyl]propa-2-enoyl}tyrosine] | 224 to 225

Further lines, results first:

melting point [°C] | SMILES
108 to 110 | O=C(Cc1ccc(OCc2ccc(F)cc2)cc1)NC1(c2nn[nH]n2)Cc2ccc(-c3ccc(Cl)cc3)cc2C1 (stereo not shown) [Example B191, N-[5-(4-Chlorophenyl)-2-(2H-tetrazol-5-yl)-2,3-dihydro-1H-inden-2-yl]-2-{4-[(4-fluorobenzyl)oxy]phenyl}acetamide]
191 to 192 | Nc1cccc(COc2ccc(CC(=O)NC3(C(=O)O)Cc4ccc(-c5ccc(Cl)cc5)cc4C3)cc2)c1 (stereo not shown) [Example B192, 2-[({4-[(3-Aminobenzyl)oxy]phenyl}acetyl)amino]-5-(4-chlorophenyl)indan-2-carboxylic acid]
169 to 170 | CS(=O)(=O)Nc1cccc(COc2ccc(CC(=O)NC3(C(=O)O)Cc4ccc(-c5ccc(Cl)cc5)cc4C3)cc2)c1 (stereo not shown) [Example B193, 5-(4-Chlorophenyl)-2-({[4-({3-[(methylsulfonyl)amino]benzyl)oxy)phenyl]acetyl}amino)indan-2-carboxylic acid]
149 to 150 | Nc1ccccc1COc1ccc(CC(=O)NC2(C(=O)O)Cc3ccc(-c4ccc(Cl)cc4)cc3C2)cc1 (stereo not shown) [Example B194, 2-[({4-[(2-Aminobenzyl)oxy]phenyl}acetyl)amino]-5-(4-chlorophenyl)indan-2-carboxylic acid]
184 to 185 | O=C(N[C@@H](Cc1ccc(OCc2cccc(F)c2)cc1)C(=O)O)c1cc2cc(-c3ccc(Cl)cc3)ccc2s1 [Example C126, N-{[5-(4-Chlorophenyl)-1-benzothiophene-2-yl]carbonyl}-O-(3-fluorobenzyl) tyrosine]
204 to 205 | CC(C)Oc1ccc(-c2ccc3sc(C(=O)N[C@@H](Cc4ccc(OCc5ccc(F)cc5)cc4)C(=O)O)cc3c2)cc1 [Example C130, O-(4-Fluorobenzyl)-N-{[5-(4-isopropoxyphenyl)-1-benzothiophene-2-yl]carbonyl}tyrosine]
208 | Cc1ccc(COc2ccc(C[C@H](NC(=O)c3cc4cc(-c5ccc(Cl)cc5)ccc4s3)C(=O)O)cc2)cc1 [Example C134, N-{[5-(4-Chlorophenyl)-1-benzothiophene-2-yl]carbonyl}-O-(4-methylbenzyl)tyrosine]
196 to 197 | O=C(N[C@@H](Cc1ccc(OCc2ccc(Cl)cc2)cc1)C(=O)O)c1cc2cc(-c3ccc(Cl)cc3)ccc2s1 [Example C135, O-(4-Chlorobenzyl)-N-{[5-(4-chlorophenyl)-1-benzothiophene-2-yl]carbonyl}tyrosine]
164 | N#Cc1ccc(COc2ccc(C[C@H](NC(=O)c3cc4cc(-c5ccc(Cl)cc5)ccc4s3)C(=O)O)cc2)cc1 [Example C136, N-{[5-(4-Chlorophenyl)-1-benzothiophene-2-yl]carbonyl)-O-(4-cyanobenzyl)tyrosine]
205 | CCc1ccc(COc2ccc(C[C@H](NC(=O)c3cc4cc(-c5ccc(Cl)cc5)ccc4s3)C(=O)O)cc2)cc1 [Example C137, N-{[5-(4-Chlorophenyl)-1-benzothiophene-2-yl]carbonyl}-O-(4-ethylbenzyl)tyrosine]
198 | O=C(N[C@@H](Cc1ccc(OCc2ccc(C(F)(F)F)cc2)cc1)C(=O)O)c1cc2cc(-c3ccc(Cl)cc3)ccc2s1 [Example C138, N-{[5-(4-Chlorophenyl)-1-benzothiophene-2-yl]carbonyl}-O-[4-(trifluoromethyl)benzyl]tyrosine]
157 to 158 | Cc1cccc(COc2ccc(C[C@H](NC(=O)c3cc4ccc(-c5ccc(Cl)cc5)cc4o3)C(=O)O)cc2)c1 [Example C154, N-{[6-(4-Chlorophenyl)-1-benzofuran-2-yl]carbonyl}-O-(3-methylbenzyl)tyrosine]
204 | Cc1ccc(COc2ccc(CC(NC(=O)c3cc4ccc(-c5ccc(Cl)cc5)cc4o3)C(=O)O)cc2)cc1 (stereo not shown) [Example C158]
195 | O=C(N[C@@H](Cc1ccc(OCc2ccc(Cl)cc2)cc1)C(=O)O)c1cc2ccc(-c3ccc(Cl)cc3)cc2o1 [Example C159, O-(4-Chlorobenzyl)-N-{[6-(4-chlorophenyl)-1-benzofuran-2-yl]carbonyl}tyrosine]
204 | N#Cc1ccc(COc2ccc(C[C@H](NC(=O)c3cc4ccc(-c5ccc(Cl)cc5)cc4o3)C(=O)O)cc2)cc1 [Example C160, N-{[6-(4-Chlorophenyl)-1-benzofuran-2-yl]carbonyl}-O-(4-cyanobenzyl)tyrosine]
194 | CCc1ccc(COc2ccc(C[C@H](NC(=O)c3cc4ccc(-c5ccc(Cl)cc5)cc4o3)C(=O)O)cc2)cc1 [Example C161, N-{[6-(4-Chlorophenyl)-1-benzofuran-2-yl]carbonyl)-O-(4-ethylbenzyl)tyrosine]
203 | O=C(NC(Cc1ccc(OCc2ccc(C(F)(F)F)cc2)cc1)C(=O)O)c1cc2ccc(-c3ccc(Cl)cc3)cc2o1 (stereo not shown) [Example C162]
258 to 259 | O=C(NC(Cc1ccc(OCc2ccc(F)cc2)cc1)C(=O)O)c1nc2ccc(-c3ccc(Cl)cc3)cc2[nH]1 (stereo not shown) [Example C168]
